Laboratory results from patent US20020142993A1, “Pharmaceutically acceptable salts of bicyclic compounds” (DR. REDDY'S LABORATORIES LTD., priority 2000, published 2002).
Structures can show the parent of a compound that is named as a salt.

Legend:
Swiss albino mice = test: Plasma triglyceride and total cholesterol lowering activity in Swiss albino mice and guinea pigs; type: in vivo, mouse; details: dose 3 mg/kg, oral, 6 days
Experimental: c) Plasma Triglyceride and Total Cholesterol Lowering Activity in Swiss Albino Mice and Guinea Pigs
Male Swiss albino mice (SAM) and male Guinea pigs were obtained from NIN and housed in DRF animal house. All these animals were maintained under 12 hour light and dark cycle at 25±1° C. Animals were given standard laboratory chow (NIN, Hyderabad, India) and water, ad libitum. SAM of 20-25 g body weight range and Guinea pigs of 500-700 g body weight range were used (Oliver, P., Plancke, M. O., Marzin, D., Clavey, V., Sauzieres, J and Fruchart, J. C. Effects of fenofibrate, gemfibrozil and nicotinic acid on plasma lipoprotein levels in normal and hyperlipidemic mice. Atherosclerosis. 1988. 70: 107-114).
The test compounds were administered orally to Swiss albino mice at 0.3 to 30 mg/kg/day dose for 6 days. Control mice were treated with vehicle (0.25% Carboxymethylcellulose; dose 10 ml/kg). The test compounds were administered orally to Guinea pigs at 0.3 to 30 mg/kg/day dose for 6 days. Control animals were treated with vehicle (0.25% Carboxymethylcellulose; dose 5 ml/kg).
The blood samples were collected in fed state 1 hour after drug administration on 0 and 6 day of treatment. The blood was collected from the retro-orbital sinus through heparinised capillary in EDTA containing tubes. After centrifugation, plasma sample was separated for triglyceride and total cholesterol (Wieland, O. Methods of Enzymatic analysis. Bergermeyer, H. O., Ed., 1963. 211-214; Trinder, P. Ann. Clin. Biochem. 1969. 6: 24-27). Measurement of plasma triglyceride, total cholesterol and HDL were done using commercial kits (Dr. Reddy's Diagnostic Division, Hyderabad, India).
(§1) 1. Percent reduction in Blood sugar/triglycerides/total cholesterol were calculated according to the formula: [formula]

C57BL/KsJ-db/db mice = test: Blood sugar and triglyceride lowering in db/db mice; type: in vivo, mouse; details: dose 0.03 mg/kg, oral gavage daily for 6 days
Source text: Mutation in colonies of laboratory animals and different sensitivities to dietary regimens have made the development of animal models with non-insulin dependent diabetes and hyperlipidemia associated with obesity and insulin resistance possible. Genetic models such as db/db and ob/ob (Diabetes, (1982)31(1): 1-6) mice and zucker fa/fa rats have been developed by the various laboratories for understanding the pathophysiology of disease and testing the efficacy of new antidiabetic compounds (Diabetes, (1983)32: 830-838; Annu. Rep. Sankyo Res. Lab. (1994).46:1-57). […]
The random blood sugar and triglyceride levels were measured by collecting blood (100 μl) through orbital sinus, using heparinised capillary in tubes containing EDTA which was centrifuged to obtain plasma. The plasma glucose and triglyceride levels were measured spectrometrically, by glucose oxidase and glycerol 3 PO4 oxidase/peroxidase enzyme (Dr. Reddy's Lab. Diagnostic Division Kits, Hyderabad, India) methods respectively.
The blood sugar and triglycerides lowering activities of the test compound was calculated according to the formula.
as §1

[1] = Single dose oral pharmacokinetic studies; type: in vivo; details: male Wistar rats, suspension in 0.25% sodium CMC
Experimental: Single Dose Oral Pharmacokinetic Studies
Male Wistar rats (220-250 gm) were used in the experiments. The animals were maintained under standard laboratory conditions and had free access to feed and water ad libitum. Before experimentation animals were fasted overnight (˜15 h) during which they had free access to water ad libitum.
An amount equivalent to 30 mg of drug was weighed accurately and transferred into a clean mortar and triturated to obtain a fine powder. To this 0.5 ml of 0.25% sodium carboxy methyl cellulose (sodium CMC) was added to obtain a paste. To the obtained paste remaining 2.5 ml of sodium CMC was added to make up the volume to 3 ml. Based on the animal weight appropriate volume (body weight×3) of the prepared suspension was administered through oral gavage.
After dosing, at designated time points (0.5, 1, 2, 3, 5, 8, 12 and 24 h) 200 μl of blood was collected from retro orbital plexus into 0.5 ml eppendorff tubes containing EDTA (10 μl of 200 mg/ml solution in Milli Q water). Blood was centrifuged at 12,800 rpm for 5 min and obtained plasma and stored at −20° C. till further analysis.
100 μl plasma was transferred into a clean and dry centrifuge tube. To this internal standard (10 μl of 100 μg/ml) was added and extracted with 2 ml of extraction recovery solvent. The contents were vortexed for 2 min, followed by centrifugation for 10 min at 2800 rpm. Clear organic layer (2×0.75 ml) was separated and dried under nitrogen gas at 50° C. The residue was reconstituted with 150 μl of mobile phase and vortexed for 20 sec, from this 50 μl was injected onto HPLC column.
Pharmacokinetic parameters were calculated by non-compartmental model analysis. The peak plasma concentration (Cmax) and the corresponding time (Tmax) were directly obtained from the raw data. The area under the plasma concentration versus time curve up to the last quantifiable time point, AUC(0-t) was obtained by the linear and log-linear trapezoidal summation. The AUC(0-t) extrapolated to infinity (i.e., AUC(0-∞)) by adding the quotient of Clast/Kel, where Clast represents the last measurable time concentration and Kel represents the apparent terminal rate constant. Kel was calculated by the linear regression of the log-transformed concentrations of the drug in the terminal phase. The half-life of the terminal elimination phase was obtained using the relationship

hPPARγ1 = target: T1, hPPARγ1 (Homo sapiens, UniProt P37231); test: Determination of hPPARγ activity (GAL4-LBD luciferase reporter in HEK-293 cells); type: cell-based; details: 1 μM compound, transfected HEK-293 cells
T1 construct: expressed in transfected cells; host or cells: HEK-293
T1 sequence (P37231 238-503 limits assumed): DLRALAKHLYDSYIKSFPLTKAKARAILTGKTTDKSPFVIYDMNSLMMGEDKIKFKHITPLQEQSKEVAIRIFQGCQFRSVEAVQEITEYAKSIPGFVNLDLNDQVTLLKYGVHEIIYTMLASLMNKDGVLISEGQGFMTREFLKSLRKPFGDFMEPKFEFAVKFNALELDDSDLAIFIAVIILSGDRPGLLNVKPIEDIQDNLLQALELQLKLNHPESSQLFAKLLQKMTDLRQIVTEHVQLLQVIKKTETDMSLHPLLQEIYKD
Experimental: b) Determination of hPPARγ Activity
Ligand binding domain of hPPARγ1 was fused to DNA binding domain of Yeast transcription factor GAL4 in eucaryotic expression vector. Using lipofectamine (Gibco BRL, USA) as transfecting reagent HEK-293 cells were transfected with this plasmid and a reporter plasmid harboring the luciferase gene driven by a GAL4 specific promoter. Compound was added at 1 μM concentration after 48 hrs of transfection and incubated overnight. Luciferase activity as a function of drug binding/activation capacity of PPARγ1 was measured using Packard Luclite kit (Packard, USA) in Packard Top Count (Ivan Sadowski, Brendan Bell, Peter Broag and Melvyn Hollis. Gene. 1992. 118: 137-141; Guide to Eukaryotic Transfections with Cationic Lipid Reagents. Life Technologies, GIBCO BRL, USA).

hPPARα = target: T2, hPPARα (Homo sapiens, UniProt Q07869); test: Determination of hPPARα activity (GAL4-LBD luciferase reporter in HEK-293 cells); type: cell-based; details: 50 μM compound, transfected HEK-293 cells
T2 construct: expressed in transfected cells; host or cells: HEK-293
T2 sequence (Q07869 239-466 limits assumed): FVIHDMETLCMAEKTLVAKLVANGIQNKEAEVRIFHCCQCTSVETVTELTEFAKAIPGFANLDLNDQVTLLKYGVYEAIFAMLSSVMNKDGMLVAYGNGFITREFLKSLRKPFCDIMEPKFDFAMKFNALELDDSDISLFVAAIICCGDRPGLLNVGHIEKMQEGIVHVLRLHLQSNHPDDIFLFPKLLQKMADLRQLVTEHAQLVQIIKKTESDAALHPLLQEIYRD
Experimental: a) Determination of hPPARα Activity
Ligand binding domain of hPPARα was fused to DNA binding domain of Yeast transcription factor GAL4 in eucaryotic expression vector. Using superfect (Qiagen, Germany) as transfecting reagent HEK-293 cells were transfected with this plasmid and a reporter plasmid harboring the luciferase gene driven by a GAL4 specific promoter. Compound was added at different concentrations after 42 hrs of transfection and incubated overnight. Luciferase activity as a function of compound binding/activation capacity of PPARα was measured using Packard Luclite kit (Packard, USA) in Top Count (Ivan Sadowski, Brendan Bell, Peter Broag and Melvyn Hollis. Gene. 1992. 118: 137 -141; Superfect Transfection Reagent Handbook. February 1997, Qiagen, Germany).

| SMILES | melting point | Triglyceride Lowering (%) (Swiss albino mice) | PPARγ (luciferase activity) (hPPARγ1) | PPARα (luciferase activity) (hPPARα) | further results |
| --- | --- | --- | --- | --- | --- |
| CCO[C@@H](Cc1ccc(OCCN2CCSc3ccccc32)cc1)C(=O)O (as salt: salt) [Example 1] | 126 to 128 °C |  |  |  |  |
| CCO[C@@H](Cc1ccc(OCCN2CCSc3ccccc32)cc1)C(=O)O (as salt: salt) [Example 2, Metformin salt of (−)-3-[4-[2-(3,4-dihydro-2H-1,4-benzothiazin-4-yl)ethoxy]phenyl]-2-ethoxy propanoic acid] | 155 to 158 °C |  |  |  |  |
| CCO[C@@H](Cc1ccc(OCCN2CCSc3ccccc32)cc1)C(=O)O (as salt: salt) [Example 3, Dicyclohexylamine salt of (−)-3-[4-[2-(3,4-dihydro-2H-1,4-benzothiazin-4-yl)ethoxy]phenyl]-2-ethoxy propanoic acid] | 110 °C |  |  |  |  |
| CCO[C@@H](Cc1ccc(OCCN2CCSc3ccccc32)cc1)C(=O)O (as salt: salt) [Example 5, -Lysine salt of (−)-3-[4-[2-(3,4-dihydro-2H-1,4-benzothiazin-4-yl)ethoxy]phenyl]-2-ethoxy propanoic acid] | 142 to 144 °C |  |  |  |  |
| CCOC(Cc1ccc(OCCN2CCSc3ccccc32)cc1)C(=O)O (stereo in doubt) [Example 4, (R)-(+)-Methyl benzylamine salt of (−)-3-[4-[2-(3,4-dihydro-2H-1,4-benzothiazin-4-yl)ethoxy]phenyl]-2-ethoxy propanoic acid] |  | 55% |  |  |  |
| CCO[C@@H](Cc1ccc(OCCN2CCSc3ccccc32)cc1)C(=O)O [Example 1] |  | 66% |  |  |  |
| CCO[C@@H](Cc1ccc(OCCN2CCSc3ccccc32)cc1)C(=O)O [Example 2, Metformin salt of (−)-3-[4-[2-(3,4-dihydro-2H-1,4-benzothiazin-4-yl)ethoxy]phenyl]-2-ethoxy propanoic acid] |  | 55% | 9.8 | 3.0 | Reduction in Blood Glucose Level (%) (C57BL/KsJ-db/db mice): 56%; Triglyceride Lowering (%) (C57BL/KsJ-db/db mice): 59%; Ke1 [1]: 0.17 ± 0.03 h⁻¹; AUC(0-inf) ([1]; rat, plasma, 30 mg/kg): 320 ± 36.2 µg·h/mL; AUC(0-t) ([1]; rat, plasma, 30 mg/kg): 315 ± 34.7 µg·h/mL; Cmax ([1]; rat, plasma, 30 mg/kg): 77.2 ± 24.1 µg/mL; Tmax ([1]; rat, plasma, 30 mg/kg): 0.63 ± 0.25 h; half-life ([1]; rat, plasma, 30 mg/kg): 4.25 ± 0.86 h |
| CCO[C@@H](Cc1ccc(OCCN2CCSc3ccccc32)cc1)C(=O)O [Example 3, Dicyclohexylamine salt of (−)-3-[4-[2-(3,4-dihydro-2H-1,4-benzothiazin-4-yl)ethoxy]phenyl]-2-ethoxy propanoic acid] |  |  | 19 | 5.2 |  |
| CCO[C@@H](Cc1ccc(OCCN2CCSc3ccccc32)cc1)C(=O)O [Example 5, -Lysine salt of (−)-3-[4-[2-(3,4-dihydro-2H-1,4-benzothiazin-4-yl)ethoxy]phenyl]-2-ethoxy propanoic acid] |  | 46% | 7.6 | 3.5 |  |
| CCO[C@@H](Cc1ccc(OCCN2CCSc3ccccc32)cc1)C(=O)O [Example 6, Amino guanidine hydrogen carbonate salt of (−)-3-[4-[2-(3,4-dihydro-2H-1,4-benzothiazin-4-yl)ethoxy]phenyl]-2-ethoxy propanoic acid] |  |  | 21 | 4.7 |  |
